Measurements from patent US20230346777A1, “USE OF SGC ACTIVATORS FOR THE TREATMENT OF OPHTHALMOLOGIC DISEASES” (Bayer Aktiengesellschaft, priority 2020, published 2023).
Where a name gives a salt, the structure may show the parent alone.

Legend:
[1] = target: T1, recombinant guanylate cyclase reporter cell line (Rattus norvegicus, UniProt P20595); test: Effect on a recombinant guanylate cyclase reporter cell line; format: cell-based
T1 construct: expressed in transfected cells; CHO by own knowledge of the cited Wunder et al. 2005
T1 sequence (P20595 1-619): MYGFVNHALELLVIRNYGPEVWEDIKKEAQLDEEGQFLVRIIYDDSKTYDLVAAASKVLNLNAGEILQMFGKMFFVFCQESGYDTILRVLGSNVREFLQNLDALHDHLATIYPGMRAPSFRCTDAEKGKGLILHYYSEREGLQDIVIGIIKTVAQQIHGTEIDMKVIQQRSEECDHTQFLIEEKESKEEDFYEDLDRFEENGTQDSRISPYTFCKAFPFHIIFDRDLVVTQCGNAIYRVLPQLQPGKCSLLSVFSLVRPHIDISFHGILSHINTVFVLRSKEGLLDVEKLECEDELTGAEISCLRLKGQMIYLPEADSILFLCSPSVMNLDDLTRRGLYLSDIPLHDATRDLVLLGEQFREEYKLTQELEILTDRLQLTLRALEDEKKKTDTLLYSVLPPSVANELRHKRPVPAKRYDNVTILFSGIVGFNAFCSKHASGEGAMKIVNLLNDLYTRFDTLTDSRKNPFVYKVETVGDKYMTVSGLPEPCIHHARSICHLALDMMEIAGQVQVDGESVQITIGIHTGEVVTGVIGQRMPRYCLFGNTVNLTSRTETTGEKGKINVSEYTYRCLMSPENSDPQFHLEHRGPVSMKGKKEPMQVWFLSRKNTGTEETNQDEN
T1 sequence (P19686 1-690 partner): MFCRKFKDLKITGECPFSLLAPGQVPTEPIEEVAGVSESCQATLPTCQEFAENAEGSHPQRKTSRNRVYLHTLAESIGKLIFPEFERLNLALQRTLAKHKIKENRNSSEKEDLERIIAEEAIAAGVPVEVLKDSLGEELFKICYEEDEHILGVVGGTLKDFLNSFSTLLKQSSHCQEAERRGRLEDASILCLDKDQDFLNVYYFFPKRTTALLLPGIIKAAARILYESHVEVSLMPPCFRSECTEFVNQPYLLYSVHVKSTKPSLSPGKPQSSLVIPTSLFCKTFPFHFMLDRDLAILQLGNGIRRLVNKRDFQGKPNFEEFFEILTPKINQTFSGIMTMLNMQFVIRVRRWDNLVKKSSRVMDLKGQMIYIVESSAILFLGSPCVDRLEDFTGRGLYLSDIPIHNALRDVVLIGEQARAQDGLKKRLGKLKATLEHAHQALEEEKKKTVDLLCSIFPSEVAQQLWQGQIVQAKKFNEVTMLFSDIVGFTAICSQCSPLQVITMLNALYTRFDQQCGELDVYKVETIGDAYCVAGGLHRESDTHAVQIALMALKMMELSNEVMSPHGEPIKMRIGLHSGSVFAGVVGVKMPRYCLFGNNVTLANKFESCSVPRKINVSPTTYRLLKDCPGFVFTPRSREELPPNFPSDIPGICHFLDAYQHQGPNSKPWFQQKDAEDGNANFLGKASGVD
Experimental: B-1. Effect on a Recombinant Guanylate Cyclase Reporter Cell Line
The cellular activity of the compounds according to the invention was determined using a recombinant guanylate cyclase reporter cell line, as described in F. Wunder et al., Anal. Biochem. 339, 104-112 (2005).

[2] = Pharmacokinetic parameters following intravenous and oral administration in rats; format: in vivo, male Wistar rats; conditions: for clearance: read-out: CLplasma (converted); for half-life: read-out: t½ (converted)
Experimental: (§1) B-2. Determination of Pharmacokinetic Parameters Following Intravenous and Oral Administration
(§2) The pharmacokinetic parameters of the compounds according to the invention were determined in male Wistar rats and/or in female beagles and/or in cynomolgus monkeys and/or in male CD-1 mice. Intravenous administration in the case of mice and rats was carried out by means of a species-specific plasma/DMSO formulation, and in the case of dogs and monkeys by means of a water/PEG400/ethanol formulation. In all species, oral administration of the dissolved substance was performed via gavage, based on a water/PEG400/ethanol formulation.
(§3) An internal standard (which may also be a chemically unrelated substance) was added to the samples of the compounds of the invention, calibration samples and qualifiers, and there followed protein precipitation by means of acetonitrile in excess. Addition of a buffer solution matched to the LC conditions, and subsequent vortexing, was followed by centrifugation at 1000 g. The supernatant was analysed by LC-MS/MS using C18 reversed-phase columns and variable mobile phase mixtures. The substances were quantified via the peak heights or areas from extracted ion chromatograms of specific selected ion monitoring experiments.
(§4) The plasma concentration/time plots determined were used to calculate the pharmacokinetic parameters such as AUC, Cmax, t1/2 (terminal half-life), F (bioavailability), MRT (mean residence time) and CL (clearance), by means of a validated pharmacokinetic calculation program.
(§5) Since the substance quantification was performed in plasma, it was necessary to determine the blood/plasma distribution of the substance in order to be able to adjust the pharmacokinetic parameters correspondingly.
(§6) For this purpose, a defined amount of substance was incubated in K3 EDTA whole blood of the species in question in a rocking roller mixer for 20 min. After centrifugation at 1000 g, the plasma concentration was measured (by means of LC-MS/MS; see above) and determined by calculating the ratio of the Cblood/Cplasma value.

[3] = Pharmacokinetic parameters following intravenous and oral administration in dogs; format: in vivo, female beagles; conditions: for half-life: read-out: t½ (converted)
Experimental: as §1, §2, §3, §4, §5, §6

[4] = male, Wistar, rat, plasma, iv, intravenous administration
[5] = male, Wistar, rat, plasma, iv, intravenous administration, read-out: MRT
[6] = male, Wistar, rat, plasma, po, oral administration (p.o.), read-out: MRT
[7] = male, Wistar, rat, plasma, po, oral administration (p.o.)
[8] = female, beagle, dog, plasma, intravenous administration (i.v.)
[9] = female, beagle, dog, plasma, oral administration (p.o.)

| EC50 [1] [nM] | MEC (minimum effective concentration) [1] [nM] | AUCnorm ([2]; intravenous administration) [kg·h/L] | clearance [2, 4] [mL/min/kg] | MRT [2, 5] [h] | half-life [2, 4] [h] | MRT [2, 6] [h] | half-life [2, 7] [h] | AUCnorm ([2]; oral administration (p.o.)) [kg·h/L] | F ([2]; oral administration (p.o.)) [%] | SMILES | other results |
| --- | --- | --- | --- | --- | --- | --- | --- | --- | --- | --- | --- |
| 9.2 | 2.3 | 1.77 | 9.33 | 2.24 | 1.64 | 6.28 | 3.24 | 0.57 | 31.4 | CC(C)CN1CCN(c2ccc(-c3ccc(Cl)cc3N3CCCC(n4ncc(C(=O)O)c4C(F)F)C3)cc2)CC1 (single isomer, unassigned) [Example 1, 1-[1-{4-Chloro-4′-[4-(2-methylpropyl)piperazin-1-yl][1,1′-biphenyl]-2-yl}piperidin-3-yl]-5-(difluoromethyl)-1H-pyrazole-4-carboxylic acid hydrochloride] | – |
| 3.2 | 0.3 | 1.40 | 12 | 2.62 | 2.09 | 5.91 | 3.02 | 0.84 | 59.9 | CCCN1CCN(c2ccc(-c3ccc(Cl)cc3N3CCCC(n4ncc(C(=O)O)c4C(F)F)C3)cc2)CC1 (single isomer, unassigned) [Example 4, 1-{1-[4-Chloro-4′-(4-propylpiperazin-1-yl)[biphenyl]-2-yl]piperidin-3-yl}-5-(difluoromethyl)-1H-pyrazole-4-carboxylic acid hydrochloride] | – |
| 3.6 | <0.3 | 1.23 | 13.5 | 2.88 | 2.43 | 7.53 | 3.76 | 0.70 | 58.2 | O=C(O)c1cnn(C2CCCN(c3cc(Cl)ccc3-c3ccc(N4CCN(CC5CC5)CC4)cc3)C2)c1C(F)F (single isomer, unassigned) [Example 5, 1-(1-{4-Chloro-4′-[4-(cyclopropylmethyl)piperazin-1-yl][biphenyl]-2-yl}piperidin-3-yl)-5-(difluoromethyl)-1H-pyrazole-4-carboxylic acid hydrochloride] | – |
| 19.3 | 1.6 | 2.29 | – | – | – | – | – | 2.11 | 91.7 | O=C(O)c1cnn(C2CCCN(c3cc(Cl)ccc3-c3ccc(N4CCN(CC(F)(F)F)CC4)cc3)C2)c1C(F)F (single isomer, unassigned) [Example 6, 1-[1-[5-Chloro-2-[4-[4-(2,2,2-trifluoroethyl)piperazin-1-yl]phenyl]phenyl]-3-piperidyl]-5-(difluoromethyl)pyrazole-4-carboxylic acid] | CLplasma ([2]; intravenous administration): 7.33 mL/min/kg; MRT ([2]; intravenous administration): 4.16 h; t½ ([2]; intravenous administration): 5.13 h; MRT ([2]; oral administration (p.o.)): 14.2 h; t½ ([2]; oral administration (p.o.)): 7.37 h |
| 13.7 | 1.6 | 7.23 | – | 4.41 | 3.83 | 7.32 | – | 4.04 | 56.1 | O=C(O)c1cnn(C2CCCN(c3cc(Cl)ccc3-c3ccc(N4CCN(CC(F)(F)F)CC4)cc3)C2)c1C(F)F (single isomer, unassigned) [Example 7, 1-[1-[5-Chloro-2-[4-[4-(2,2,2-trifluoroethyl)piperazin-1-yl]phenyl]phenyl]-3-piperidyl]-5-(difluoromethyl)pyrazole-4-carboxylic acid] | CLplasma ([2]; intravenous administration): 2.33 mL/min/kg; t½ ([2]; oral administration (p.o.)): 3.63 h |
| 40 | 6.5 | – | – | – | – | – | – | – | – | CC(C)CN1CCN(c2ccc(-c3ccc(Cl)cc3N3CCCC(n4ncc(C(=O)O)c4C(F)(F)F)C3)cc2)CC1 (single isomer, unassigned) [Example 8, 1-[1-{4-Chloro-4′-[4-(2-methylpropyl)piperazin-1-yl][1,1′-biphenyl]-2-yl}piperidin-3-yl]-5-(trifluoromethyl)-1H-pyrazole-4-carboxylic acid] | – |
| 10.3 | 2.0 | 1.37 | 12.2 | 2.39 | 1.89 | 4.04 | 3.41 | 0.52 | 37.4 | O=C(O)c1cnn(C2CCCN(c3cc(Cl)ccc3-c3ccc(N4CCN(CC5CC5)CC4)cc3)C2)c1C(F)(F)F (single isomer, unassigned) [Example 10, 1-[1-[5-Chloro-2-[4-[4-(cyclopropylmethyl)piperazin-1-yl]phenyl]phenyl]-3-piperidyl]-5-(trifluoromethyl)pyrazole-4-carboxylic acid hydrochloride] | – |
| 5.2 | 0.6 | – | – | – | – | – | – | – | – | O=C(O)c1cnn(C2CCCN(c3cc(Cl)ccc3-c3ccc(N4CCN(CC(F)(F)F)CC4)cc3)C2)c1C(F)(F)F (single isomer, unassigned) [Example 11, 1-[1-[5-Chloro-2-[4-[4-(2,2,2-trifluoroethyl)piperazin-1-yl]phenyl]phenyl]-3-piperidyl]-5-(trifluoromethyl)pyrazole-4-carboxylic acid] | – |
| – | – | 0.77 | 21.7 | 2.78 | 2.33 | 8.4 | 3.6 | 0.63 | 81.8 | O=C(O)c1cnn(-c2cccc(-c3cc(Cl)ccc3-c3ccc(N4CCN(CC5CC5)CC4)cc3)n2)c1C(F)(F)F [Comparative Example 174 (WO2012/058132), reference compound] | MRT [3, 8]: 7.23 h; clearance ([3]; female, beagle, dog, plasma, intravenous administration (i.v.), read-out: CLplasma (converted)): 3.33 mL/min/kg; half-life [3, 8]: 10.8 h; MRT [3, 9]: 6.1 h; half-life [3, 9]: 7.05 h; AUCnorm ([3]; intravenous administration (i.v.)): 5.00 kg·h/L; AUCnorm ([3]; oral administration (p.o.)): 2.08 kg·h/L; F ([3]; oral administration (p.o.)): 41.6% |
